Paper PMC12442245, “Activity Analysis of the P2X Receptor Antagonist PPADS against Signal Transducer and Activator of Transcription Proteins” (Chembiochem, 2025)

Molecular target: T1, STAT4 (Homo sapiens, UniProt Q14765)
T1 sequence (Q14765 1-748): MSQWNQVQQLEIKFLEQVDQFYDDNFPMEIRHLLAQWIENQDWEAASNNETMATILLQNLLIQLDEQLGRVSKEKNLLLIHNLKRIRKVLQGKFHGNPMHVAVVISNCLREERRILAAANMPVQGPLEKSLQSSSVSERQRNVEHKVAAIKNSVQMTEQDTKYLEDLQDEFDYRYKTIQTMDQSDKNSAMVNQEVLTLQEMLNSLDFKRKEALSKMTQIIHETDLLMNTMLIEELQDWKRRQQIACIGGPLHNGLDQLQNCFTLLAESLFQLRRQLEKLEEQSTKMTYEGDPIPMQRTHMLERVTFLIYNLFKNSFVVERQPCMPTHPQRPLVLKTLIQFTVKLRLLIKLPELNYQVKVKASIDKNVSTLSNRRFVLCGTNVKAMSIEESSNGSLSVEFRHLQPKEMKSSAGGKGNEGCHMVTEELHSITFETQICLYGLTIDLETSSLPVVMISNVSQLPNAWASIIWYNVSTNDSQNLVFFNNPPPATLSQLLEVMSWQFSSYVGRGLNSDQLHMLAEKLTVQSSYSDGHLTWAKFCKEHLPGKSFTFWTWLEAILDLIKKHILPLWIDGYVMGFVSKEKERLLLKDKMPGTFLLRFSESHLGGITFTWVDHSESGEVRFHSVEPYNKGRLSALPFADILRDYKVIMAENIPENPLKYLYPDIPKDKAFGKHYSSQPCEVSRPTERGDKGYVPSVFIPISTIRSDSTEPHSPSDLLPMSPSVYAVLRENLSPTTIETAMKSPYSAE
Assay: HTRF assay, STAT4
Assay type: binding
Settings: STAT4 30 nM, without reducing agent, 1 h
Source text: The azo dyes PPADS and iso‐PPADS have a deep red color in aqueous solution. […] In order to exclude this possibility, we established homogeneous time‐resolved fluorescence resonance energy transfer (HTRF) assays to confirm the degree of binding between STAT4, STAT5a, and STAT5b and the respective 5‐carboxyfluorescein‐labeled binding peptides used in the FP assay. In addition, an HTRF assay was established for STAT3, one of the STAT proteins targeted to a lesser extent in FP assays, as a specificity control (Figure 1B,C). The STAT protein constructs each contain a 6x‐His‐tag.^[ [15], [16], [17], [22] ^] A Tb^3+‐cryptate fused to an anti‐6x‐His antibody was chosen as the long‐lived fluorescent donor, while the carboxyfluorescein linked to the respective STAT‐binding peptides served as the acceptor (Figure 2A). Emission was measured with a time delay of 60 μs after excitation, allowing any initial compound fluorescence to decay beforehand. […]
Screening of chemical libraries comprising approximately 5000 known bioactive compounds in fluorescence polarization-based assays against phosphorylation-dependent protein-protein interaction domains, including STAT proteins, has been described.[1] […]
Fluorescence polarization assays
Competitive fluorescence polarization (FP) assays for STAT1,[2] […] Briefly, peptide binding to proteins was analyzed using the following carboxyfluorescein (CF) -labelled pepti des at a concentration of 10 nM: STAT1: 5-CF-GpYDKPHVL-OH, STAT3: 5-CF-GpYLPQTV -NH2, STAT4: 5-CF-GpYLPQNID-OH, STAT5a and STAT5b: 5-CF-GpYLVLDKW-OH, STAT6: 5- […]
CFGp[…]-OH. […] FP was measured using an Infinite F500 plate reader (Tecan) and measurements were converted into percent inhibition according to the binding curve equation. Curves were plotted and best fits calculated using OriginPro […]
Homogenous time-resolved fluorescence (HTRF) assays for STAT3, STAT4, STAT5a and STAT5b were carried out using Cisbio Monoclonal Antibody Anti-6His-Tb Gold as the fluorescence donor (Perkin Elmer) and the corresponding CF-labelled binding peptide as the acceptor. […] The average reading from 3 wells was obtained. […]

Row | Structure (SMILES) | IC50 [µM]
1 | Cc1nc(/N=N/c2ccc(S(=O)(=O)O)cc2S(=O)(=O)O)c(COP(=O)(O)O)c(C=O)c1O [PPADS, pyridoxalphosphate‐6‐azophenyl‐2',4'‐disulfonic acid] | 2.92 ± 0.36
2 | Cc1nc(/N=N/c2cc(S(=O)(=O)O)ccc2S(=O)(=O)O)c(COP(=O)(O)O)c(C=O)c1O [iso‐PPADS] | 8.6 ± 1.3
